Where “and” joins values, the source holds several entries; their conditions need not be identical. Equal values may be shown once.
Tested on: LNCaP tumor-bearing mice
Assay: Ex vivo biodistribution in LNCaP tumor-bearing mice
Parameters: species or system mouse
Settings: for Time of peak tumor uptake: post-injection
Method: Imaging, biodistribution and radioligand therapy experiments were performed following previously published procedures using male NOD-scid IL2Rg^null (NSG) or NOD.Cg-Rag1^tm1MomIl2rg^tm1Wjl/SzJ (NRG) mice [10]-[12],[14]-[15]. The experiments were conducted according to the guidelines established by the Canadian Council on Animal Care and approved by Animal Ethics Committee of the University of British Columbia. The mice were briefly sedated by inhalation of 2% isoflurane in oxygen, and implanted subcutaneously with 1×10^7 LNCaP cells behind the left shoulder. The mice were imaged or used in biodistribution studies when the tumor grew to 5-8 mm in diameter over a period of 4-5 weeks.
For biodistribution studies, the mice were injected with the radioligand (2-4 MBq) as described above. For blocking, the mice were co-injected with nonradioactive DCFPyL (0.5 mg). At predetermined time points, the mice were sedated by isoflurane inhalation and euthanized by CO2 inhalation. Blood was withdrawn by cardiac puncture, and organs/tissues of interest were collected, weighed and counted using an automatic gamma counter (Tables S4-S7).

With `COc1ccc(CCCC(=O)NCC(=O)N[C@@H](CCCCNC(=O)CN2CCN(CC(=O)[O-])CCN(CC(=O)[O-])CCN(CC(=O)[O-])CC2)C(=O)NC[C@H]2CC[C@H](C(=O)N[C@@H](Cc3c4ccccc4cc4ccccc34)C(=O)NCCCC[C@H](NC(=O)N[C@@H](COCC(=O)O)C(=O)O)C(=O)O)CC2)cc1.[177Lu+3]` [[^177Lu]Lu-HTK04028] the Adrenal glands uptake (1 h post-injection) was 3.25 ± 0.34 %ID/g, the Blood uptake (1 h post-injection) was 17.7 ± 2.10 %ID/g and the “Blood:Salivary gland uptake ratio” value (1 h post-injection) was 6.93 ± 0.33. The Bone uptake (1 h post-injection) was 0.99 ± 0.21 %ID/g, the Brain uptake (1 h post-injection) was 0.26 ± 0.03 %ID/g and the Fat uptake (1 h post-injection) was 1.26 ± 0.21 %ID/g. The Heart uptake (1 h post-injection) was 4.15 ± 0.31 %ID/g, the Intestines uptake (1 h post-injection) was 1.23 ± 0.24 %ID/g and the Kidneys uptake (1 h post-injection) was 8.30 ± 1.58 %ID/g. The Lacrimal glands uptake (1 h post-injection) was 0.51 ± 0.23 %ID/g, the Liver uptake (1 h post-injection) was 2.93 ± 0.51 %ID/g and the Lungs uptake (1 h post-injection) was 7.88 ± 1.77 %ID/g. It also gave a Muscle uptake (1 h post-injection) of 1.32 ± 0.19 %ID/g, a Pancreas uptake (1 h post-injection) of 1.53 ± 0.22 %ID/g and a Salivary glands uptake (1 h post-injection) of 2.55 ± 0.21 %ID/g. For the same compound, the Spleen uptake (1 h post-injection) was 1.53 ± 0.23 %ID/g, the Stomach uptake (1 h post-injection) was 0.51 ± 0.18 %ID/g and the Testes uptake (1 h post-injection) was 2.26 ± 0.46 %ID/g. For the same compound, the Thyroid uptake (1 h post-injection) was 3.30 ± 0.42 %ID/g, the Tumor uptake (1 h post-injection) was 19.0 ± 5.86 %ID/g and the “Tumor:Blood uptake ratio” value (1 h post-injection) was 1.11 ± 0.45. The “Tumor:Kidney uptake ratio” value (1 h post-injection) was 2.39 ± 0.99, the “Tumor:Muscle uptake ratio” value (1 h post-injection) was 14.5 ± 4.46 and the “Tumor:Salivary gland uptake ratio” value (1 h post-injection) was 7.60 ± 2.89. The Adrenal glands uptake (4 h post-injection) was 2.18 ± 0.33 %ID/g, the Blood uptake (4 h post-injection) was 12.2 ± 1.66 %ID/g and the “Blood:Salivary gland uptake ratio” value (4 h post-injection) was 7.09 ± 1.45. For the same compound, the Bone uptake (4 h post-injection) was 0.63 ± 0.10 %ID/g, the Brain uptake (4 h post-injection) was 0.19 ± 0.02 %ID/g and the Fat uptake (4 h post-injection) was 0.89 ± 0.24 %ID/g. The Heart uptake (4 h post-injection) was 2.67 ± 0.31 %ID/g, the Intestines uptake (4 h post-injection) was 1.04 ± 0.12 %ID/g and the Kidneys uptake (4 h post-injection) was 9.21 ± 2.76 %ID/g. For the same compound, the Lacrimal glands uptake (4 h post-injection) was 0.39 ± 0.19 %ID/g, the Liver uptake (4 h post-injection) was 2.29 ± 0.55 %ID/g and the Lungs uptake (4 h post-injection) was 5.79 ± 0.44 %ID/g. The Muscle uptake (4 h post-injection) was 0.83 ± 0.09 %ID/g, the Pancreas uptake (4 h post-injection) was 1.24 ± 0.04 %ID/g and the Salivary glands uptake (4 h post-injection) was 1.75 ± 0.25 %ID/g. It also gave a Spleen uptake (4 h post-injection) of 1.44 ± 0.31 %ID/g, a Stomach uptake (4 h post-injection) of 0.45 ± 0.06 %ID/g and a Testes uptake (4 h post-injection) of 2.66 ± 0.41 %ID/g. For the same compound, the Thyroid uptake (4 h post-injection) was 2.30 ± 0.30 %ID/g, the Tumor uptake (4 h post-injection) was 42.6 ± 11.6 %ID/g and the “Tumor:Blood uptake ratio” value (4 h post-injection) was 3.60 ± 1.24. The “Tumor:Kidney uptake ratio” value (4 h post-injection) was 4.89 ± 1.58, the “Tumor:Muscle uptake ratio” value (4 h post-injection) was 52.2 ± 17.4 and the “Tumor:Salivary gland uptake ratio” value (4 h post-injection) was 24.5 ± 5.95. For the same compound, the Adrenal glands uptake (24 h post-injection) was 0.73 ± 0.13 %ID/g, the Blood uptake (24 h post-injection) was 0.82 ± 0.11 %ID/g and the “Blood:Salivary gland uptake ratio” value (24 h post-injection) was 1.88 ± 0.42. It also gave a Bone uptake (24 h post-injection) of 0.11 ± 0.02 %ID/g, a Brain uptake (24 h post-injection) of 0.02 ± 0.00 %ID/g and a Fat uptake (24 h post-injection) of 0.14 ± 0.02 %ID/g. It also gave a Heart uptake (24 h post-injection) of 0.36 ± 0.03 %ID/g, an Intestines uptake (24 h post-injection) of 0.23 ± 0.05 %ID/g and a Kidneys uptake (24 h post-injection) of 4.32 ± 0.58 %ID/g. For the same compound, the Lacrimal glands uptake (24 h post-injection) was 0.05 ± 0.04 %ID/g, the Liver uptake (24 h post-injection) was 0.54 ± 0.09 %ID/g and the Lungs uptake (24 h post-injection) was 1.08 ± 0.72 %ID/g. The Muscle uptake (24 h post-injection) was 0.11 ± 0.02 %ID/g, the Pancreas uptake (24 h post-injection) was 0.15 ± 0.02 %ID/g and the Salivary glands uptake (24 h post-injection) was 0.45 ± 0.10 %ID/g. For the same compound, the Spleen uptake (24 h post-injection) was 0.48 ± 0.14 %ID/g, the Stomach uptake (24 h post-injection) was 0.31 ± 0.10 %ID/g and the Testes uptake (24 h post-injection) was 0.55 ± 0.05 %ID/g. For the same compound, the Thyroid uptake (24 h post-injection) was 0.52 ± 0.08 %ID/g, the Tumor uptake (24 h post-injection) was 30.2 ± 2.74 %ID/g and the “Tumor:Blood uptake ratio” value (24 h post-injection) was 37.2 ± 4.22. For the same compound, the “Tumor:Kidney uptake ratio” value (24 h post-injection) was 7.06 ± 0.86, the “Tumor:Muscle uptake ratio” value (24 h post-injection) was 275 ± 35.3 and the “Tumor:Salivary gland uptake ratio” value (24 h post-injection) was 69.3 ± 15.8. For the same compound, the Adrenal glands uptake (72 h post-injection) was 0.48 ± 0.17 %ID/g, the Blood uptake (72 h post-injection) was 0.05 ± 0.01 %ID/g and the “Blood:Salivary gland uptake ratio” value (72 h post-injection) was 0.26 ± 0.06. It also gave a Bone uptake (72 h post-injection) of 0.05 ± 0.02 %ID/g, a Brain uptake (72 h post-injection) of 0.01 ± 0.00 %ID/g and a Fat uptake (72 h post-injection) of 0.06 ± 0.02 %ID/g. It also gave a Heart uptake (72 h post-injection) of 0.12 ± 0.03 %ID/g, an Intestines uptake (72 h post-injection) of 0.07 ± 0.03 %ID/g and a Kidneys uptake (72 h post-injection) of 1.77 ± 0.25 %ID/g. It also gave a Lacrimal glands uptake (72 h post-injection) of 0.01 ± 0.01 %ID/g, a Liver uptake (72 h post-injection) of 0.22 ± 0.02 %ID/g and a Lungs uptake (72 h post-injection) of 0.18 ± 0.02 %ID/g. For the same compound, the Muscle uptake (72 h post-injection) was 0.03 ± 0.01 %ID/g, the Pancreas uptake (72 h post-injection) was 0.05 ± 0.01 %ID/g and the Salivary glands uptake (72 h post-injection) was 0.19 ± 0.05 %ID/g. For the same compound, the Spleen uptake (72 h post-injection) was 0.49 ± 0.16 %ID/g, the Stomach uptake (72 h post-injection) was 0.07 ± 0.07 %ID/g and the Testes uptake (72 h post-injection) was 0.31 ± 0.05 %ID/g. For the same compound, the Thyroid uptake (72 h post-injection) was 0.24 ± 0.04 %ID/g, the Tumor uptake (72 h post-injection) was 26.1 ± 7.29 %ID/g and the “Tumor:Blood uptake ratio” value (72 h post-injection) was 550 ± 108. The “Tumor:Kidney uptake ratio” value (72 h post-injection) was 14.6 ± 2.72, the “Tumor:Muscle uptake ratio” value (72 h post-injection) was 886 ± 181 and the “Tumor:Salivary gland uptake ratio” value (72 h post-injection) was 144 ± 35.6. For the same compound, the Adrenal glands uptake (120 h post-injection) was 0.33 ± 0.05 %ID/g, the Blood uptake (120 h post-injection) was 0.02 ± 0.00 %ID/g and the “Blood:Salivary gland uptake ratio” value (120 h post-injection) was 0.17 ± 0.04. For the same compound, the Bone uptake (120 h post-injection) was 0.04 ± 0.02 %ID/g, the Fat uptake (120 h post-injection) was 0.03 ± 0.01 %ID/g and the Heart uptake (120 h post-injection) was 0.07 ± 0.01 %ID/g. It also gave an Intestines uptake (120 h post-injection) of 0.08 ± 0.05 %ID/g, a Kidneys uptake (120 h post-injection) of 1.16 ± 0.13 %ID/g and a Liver uptake (120 h post-injection) of 0.16 ± 0.02 %ID/g. It also gave a Lungs uptake (120 h post-injection) of 0.09 ± 0.01 %ID/g, a Muscle uptake (120 h post-injection) of 0.02 ± 0.00 %ID/g and a Pancreas uptake (120 h post-injection) of 0.03 ± 0.00 %ID/g. The Salivary glands uptake (120 h post-injection) was 0.11 ± 0.03 %ID/g, the Spleen uptake (120 h post-injection) was 0.54 ± 0.15 %ID/g and the Stomach uptake (120 h post-injection) was 0.10 ± 0.10 %ID/g. For the same compound, the Testes uptake (120 h post-injection) was 0.22 ± 0.01 %ID/g, the Thyroid uptake (120 h post-injection) was 0.13 ± 0.02 %ID/g and the Tumor uptake (120 h post-injection) was ~ 28 %ID/g. The “Tumor:Blood uptake ratio” value (120 h post-injection) was 1714 ± 320, the “Tumor:Kidney uptake ratio” value (120 h post-injection) was 24.9 ± 5.16 and the “Tumor:Muscle uptake ratio” value (120 h post-injection) was 1825 ± 415. For the same compound, the “Tumor:Salivary gland uptake ratio” value (120 h post-injection) was 284 ± 87.9, the Tumor uptake (120 h post-injection, listed as [177Lu]Lu-HTK04028) was 28.4 ± 5.11 %ID/g and the “Peaked average tumor uptake” value (peak over 1-120 h post-injection) was ~ 43 %ID/g and 42.6 %ID/g. For the same compound, the “Time of peak tumor uptake” value was 4 h and the “Time of peak tumor uptake” value (listed as 177Lu-labeled HTK04028) was 4 to 24 h.

Source: PMC10465233, “Lys-urea-Aad, Lys-urea-Cmc and Lys-urea-Cms as potential pharmacophores for the design of PSMA-targeted radioligands to reduce off-target uptake in kidneys and salivary glands” (Theranostics, 2023)
